“Also recorded” adds a separate entry of the source.
Tests used:
BACE-1 = molecular target: T1, BACE-1 (Homo sapiens, UniProt P56817); assay: BACE-1 Activity Detection Kit, fluorescence assay; format: biochemical; conditions: means ± SD of duplicate experiments, read-out: Residual activity at 10 µM (%) BACE-1
T1 construct: purchased Sigma-Aldrich (USA)

BChE from equine serum = molecular target: T2, BChE from equine serum (Equus caballus, UniProt P81908); assay: biochemical; conditions: means ± SD of duplicate experiments, read-out: Residual activity at 10 µM (%) BChE
T2 construct: BChE from equine serum; purchased Sigma-Aldrich (USA); host or cells: equine serum
Procedure: (§1) All other chemicals were of reagent grade.
(§2) MAO-A and MAO-B inhibitory activities were determined using a continuous spectrophotometric method as described previously. […] AChE activities were assayed as described by Ellman et al., with slight modification. The inhibitory activities of AChE and BChE were measured after the enzyme was preincubated with inhibitors for 15 min and before adding DTNB and the substrate (ATCI and BTCI, respectively). […] Reaction rates were expressed as changes in absorbance per minute.

human MAO-B [1] = molecular target: T3, human MAO-B (Homo sapiens, UniProt P27338); assay: biochemical; format: biochemical; conditions: for remaining activity at 10 µM / IC50: means ± SD of duplicate experiments; for remaining activity at 10 µM: read-out: Residual activity at 10 µM (%) MAO-B
T3 construct: purchased Sigma-Aldrich (USA)
T3 sequence (P27338 1-520): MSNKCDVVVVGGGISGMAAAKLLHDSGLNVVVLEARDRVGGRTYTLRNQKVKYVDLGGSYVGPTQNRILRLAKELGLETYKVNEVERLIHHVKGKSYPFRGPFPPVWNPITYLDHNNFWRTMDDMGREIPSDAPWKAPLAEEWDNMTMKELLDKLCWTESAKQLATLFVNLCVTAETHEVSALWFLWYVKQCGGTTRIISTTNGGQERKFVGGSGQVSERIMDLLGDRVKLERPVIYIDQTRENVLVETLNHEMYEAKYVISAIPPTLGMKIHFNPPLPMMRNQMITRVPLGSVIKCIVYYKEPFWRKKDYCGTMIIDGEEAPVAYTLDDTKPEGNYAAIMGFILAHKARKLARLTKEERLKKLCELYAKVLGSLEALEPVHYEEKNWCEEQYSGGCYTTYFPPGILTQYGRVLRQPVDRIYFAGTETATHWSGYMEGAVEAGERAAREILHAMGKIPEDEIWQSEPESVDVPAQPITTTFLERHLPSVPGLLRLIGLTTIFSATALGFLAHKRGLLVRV
Procedure: as §1, §2

Recombinant human MAO-A [2] = molecular target: T4, Recombinant human MAO-A (Homo sapiens, UniProt P21397); assay: biochemical; format: biochemical; conditions: for remaining activity at 10 µM / IC50: means ± SD of duplicate experiments; for remaining activity at 10 µM: read-out: Residual activity at 10 µM (%) MAO-A; for SI (selectivity index): ratio of high IC50/low IC50 for MAO inhibition (compound 1: MAO-A versus MAO-B; compound 2: MAO-B versus MAO-A)
T4 construct: purchased Sigma-Aldrich (USA)
T4 sequence (P21397 1-527): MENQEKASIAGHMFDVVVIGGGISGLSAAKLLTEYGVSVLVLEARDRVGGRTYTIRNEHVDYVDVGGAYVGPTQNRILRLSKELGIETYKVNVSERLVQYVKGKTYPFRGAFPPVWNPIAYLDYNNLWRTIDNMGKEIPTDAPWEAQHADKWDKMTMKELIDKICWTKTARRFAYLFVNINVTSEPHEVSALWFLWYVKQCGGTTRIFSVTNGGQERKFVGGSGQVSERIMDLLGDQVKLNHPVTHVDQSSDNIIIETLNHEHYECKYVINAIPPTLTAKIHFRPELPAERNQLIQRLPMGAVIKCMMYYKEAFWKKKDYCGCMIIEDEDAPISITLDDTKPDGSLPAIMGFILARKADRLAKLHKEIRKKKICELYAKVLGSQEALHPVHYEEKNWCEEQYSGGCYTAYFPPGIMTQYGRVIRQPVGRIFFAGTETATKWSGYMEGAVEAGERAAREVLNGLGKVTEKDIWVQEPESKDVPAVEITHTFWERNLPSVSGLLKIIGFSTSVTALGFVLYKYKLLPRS
Procedure: as §1, §2

Recombinant human MAO-A [3] = molecular target: T4, Recombinant human MAO-A; assay: MAO-A inhibition kinetics (Lineweaver-Burk and secondary plots); format: biochemical; conditions: for Mode of MAO-A inhibition: Lineweaver-Burk plots; for Ki: secondary plots of Lineweaver-Burk slopes, kynuramine 0.0075-0.12 mM
Procedure: (§3) Kinetic parameters, inhibition types, and […] (Ki) values of potent MAO-A and MAO-B inhibitors (i.e., compound 1 for MAO-A; compound 2 for MAO-A and MAO-B) were determined, as previously described. […]; Inhibitory patterns and Ki values were determined using Lineweaver-Burk plots and secondary plots of their slopes.
(§4) Modes of MAO-A inhibition by compound 1 and modes of MAO-A and MAO-B inhibition by compound 2 were investigated using Lineweaver-Burk plots. […].
(§5) Fig. 3 Lineweaver-Burk plots of monoamine oxidase (MAO)-A inhibition by compound 1 (A) and of MAOA and MAO-B inhibition by compound 2 (C and E for respective MOA isoforms) as well as their respective secondary plots, as slopes of Lineweaver-Burk plots vs. inhibitor concentrations (B, D, and F). […]. […] The initial velocity was expressed as an increase in absorbance per min.

Recombinant human MAO-A [4] = molecular target: T4, Recombinant human MAO-A; assay: Reversibility of MAO-A inhibition by dialysis; format: biochemical; conditions: for Reversibility of MAO-A inhibition: dialysis; for Relative activity of MAO-A, dialyzed (AD) / Relative activity of MAO-A, undialyzed (AU): inhibitor at twice the IC50, preincubated 30 min; for Relative activity of MAO-A, dialyzed (AD): after dialysis
Procedure: (§6) After the compounds or reference inhibitors were preincubated with MAOs for 30 min, residual activities for undialyzed and dialyzed samples were measured. The relative values for undialyzed (AU) and dialyzed (AD) activities were then calculated, and the reversibilities were determined by comparing the AU and AD values of the inhibitors with those of the references.
(§7) Results are the averages of experiments performed in duplicate.

[5] = molecular target: T5, AChE from Electrophorus electricus (Electrophorus electricus, UniProt O42275); assay: biochemical; conditions: means ± SD of duplicate experiments; for remaining activity at 10 µM: read-out: Residual activity at 10 µM (%) AChE
T5 construct: AChE from Electrophorus electricus; purchased Sigma-Aldrich (USA)

human MAO-B [6] = molecular target: T3, human MAO-B; assay: Reversibility of MAO-B inhibition by dialysis; format: biochemical
Procedure: as §6, §7

human MAO-B [7] = molecular target: T3, human MAO-B; assay: MAO-B inhibition kinetics (Lineweaver-Burk and secondary plots); format: biochemical
Procedure: as §3, §4, §5

MAO-B = conditions: cited from earlier work
MAO-A = conditions: cited from earlier work

T1 sequence (P56817 46-501, species assumed): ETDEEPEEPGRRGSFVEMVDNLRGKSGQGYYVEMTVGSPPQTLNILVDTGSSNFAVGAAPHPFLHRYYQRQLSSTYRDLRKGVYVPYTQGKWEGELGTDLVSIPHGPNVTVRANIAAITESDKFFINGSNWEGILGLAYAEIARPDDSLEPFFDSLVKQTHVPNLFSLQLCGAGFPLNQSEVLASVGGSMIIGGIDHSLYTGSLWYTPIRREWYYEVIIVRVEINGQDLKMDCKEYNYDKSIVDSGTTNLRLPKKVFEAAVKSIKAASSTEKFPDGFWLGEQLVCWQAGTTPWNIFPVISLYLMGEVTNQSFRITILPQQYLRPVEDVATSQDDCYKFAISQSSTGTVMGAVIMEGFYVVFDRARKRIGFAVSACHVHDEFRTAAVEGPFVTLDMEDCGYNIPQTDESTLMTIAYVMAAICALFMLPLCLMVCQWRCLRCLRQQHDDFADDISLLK
T5 sequence (O42275 24-633): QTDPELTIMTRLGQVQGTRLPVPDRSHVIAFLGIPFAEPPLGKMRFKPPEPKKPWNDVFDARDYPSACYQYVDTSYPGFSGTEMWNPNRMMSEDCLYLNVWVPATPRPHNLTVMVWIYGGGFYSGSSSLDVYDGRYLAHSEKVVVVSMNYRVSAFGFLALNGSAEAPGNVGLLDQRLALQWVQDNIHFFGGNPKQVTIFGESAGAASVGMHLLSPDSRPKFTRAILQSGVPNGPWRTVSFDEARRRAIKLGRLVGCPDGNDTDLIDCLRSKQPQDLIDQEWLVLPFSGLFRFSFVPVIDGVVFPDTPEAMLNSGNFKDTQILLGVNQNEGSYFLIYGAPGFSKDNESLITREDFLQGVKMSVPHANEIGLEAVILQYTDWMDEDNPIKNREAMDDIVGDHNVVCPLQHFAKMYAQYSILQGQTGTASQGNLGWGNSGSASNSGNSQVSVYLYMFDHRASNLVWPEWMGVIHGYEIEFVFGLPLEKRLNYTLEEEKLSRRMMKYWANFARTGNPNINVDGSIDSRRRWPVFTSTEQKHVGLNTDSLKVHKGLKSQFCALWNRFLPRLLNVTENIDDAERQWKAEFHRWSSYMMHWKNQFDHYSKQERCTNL
T2 sequence (P81908 whole entry): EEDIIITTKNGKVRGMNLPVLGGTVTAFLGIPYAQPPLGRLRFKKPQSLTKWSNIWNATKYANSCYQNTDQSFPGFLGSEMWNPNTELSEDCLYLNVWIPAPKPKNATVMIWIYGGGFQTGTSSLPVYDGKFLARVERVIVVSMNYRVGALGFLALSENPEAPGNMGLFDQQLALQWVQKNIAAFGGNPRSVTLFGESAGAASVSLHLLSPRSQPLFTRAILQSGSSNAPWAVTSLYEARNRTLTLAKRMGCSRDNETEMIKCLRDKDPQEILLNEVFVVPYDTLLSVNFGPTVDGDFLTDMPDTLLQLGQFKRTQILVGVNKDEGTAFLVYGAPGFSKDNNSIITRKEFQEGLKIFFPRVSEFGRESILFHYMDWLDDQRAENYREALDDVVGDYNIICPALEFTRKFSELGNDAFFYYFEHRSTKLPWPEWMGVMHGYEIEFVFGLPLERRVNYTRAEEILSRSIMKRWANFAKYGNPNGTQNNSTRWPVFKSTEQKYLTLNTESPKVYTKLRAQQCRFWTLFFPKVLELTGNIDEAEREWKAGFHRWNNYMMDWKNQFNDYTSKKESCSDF

Compound: CC(C)c1cc(=O)c2c(O)cc(O)cc2o1 [Compound 1, 5,7-dihydroxy-2-isopropyl-4H-chromen-4-one]
- remaining activity at 10 µM (BACE-1): 85.8 ± 0.28%
- remaining activity at 10 µM (BChE from equine serum): 80.7 ± 3.46%
- remaining activity at 10 µM (human MAO-B [1]): 71.5 ± 5.45%
- IC50 (human MAO-B [1]): 27 ± 2.78 µM
- remaining activity at 10 µM (Recombinant human MAO-A [2]): 25.4 ± 2.24%
- IC50 (Recombinant human MAO-A [2]): 2.7 ± 0.034 µM
- SI (selectivity index) (Recombinant human MAO-A [2]): 10.0
- Mode of MAO-A inhibition (Recombinant human MAO-A [3]): competitive inhibitor
- Ki (Recombinant human MAO-A [3]): 0.94 ± 0.28 µM
- Reversibility of MAO-A inhibition (Recombinant human MAO-A [4]): reversible inhibitor
- Relative activity of MAO-A, dialyzed (AD) (Recombinant human MAO-A [4]): 90.9%
- Relative activity of MAO-A, undialyzed (AU) (Recombinant human MAO-A [4]): 35.5%
- remaining activity at 10 µM [5]: 70.5 ± 6.31%
- IC50 [5]: 31.7 ± 2.39 µM

Compound: CCC(C)c1cc(=O)c2c(O)cc(O)cc2o1 (stereo not shown) [Compound 2, 5,7-dihydroxy-2-(1-methylpropyl)-4H-chromen-4-one]
- remaining activity at 10 µM (BACE-1): 98.3 ± 0.27%
- remaining activity at 10 µM (BChE from equine serum): 96.4 ± 4.27%
- remaining activity at 10 µM (human MAO-B [1]): 34.4 ± 7.95%
- IC50 (human MAO-B [1]): 3.42 ± 1.47 µM
- remaining activity at 10 µM (Recombinant human MAO-A [2]): 37.8 ± 0.82%
- IC50 (Recombinant human MAO-A [2]): 6.92 ± 0.067 µM
- SI (selectivity index) (Recombinant human MAO-A [2]): 2.02
- Mode of MAO-A inhibition (Recombinant human MAO-A [3]): competitive inhibitor
- Ki (Recombinant human MAO-A [3]): 3.57 ± 0.6 µM
- Reversibility of MAO-B inhibition (human MAO-B [6]; dialysis): reversible inhibitor
- Relative activity of MAO-B, dialyzed (AD) (human MAO-B [6]; inhibitor at twice the IC50, preincubated 30 min, after dialysis): 76.7%
- Relative activity of MAO-B, undialyzed (AU) (human MAO-B [6]; inhibitor at twice the IC50, preincubated 30 min, undialyzed): 34.8%
- Reversibility of MAO-A inhibition (Recombinant human MAO-A [4]): reversible inhibitor
- Relative activity of MAO-A, dialyzed (AD) (Recombinant human MAO-A [4]): 79.4%
- Relative activity of MAO-A, undialyzed (AU) (Recombinant human MAO-A [4]): 35.6%
- remaining activity at 10 µM [5]: 88.3 ± 2.54%
- Mode of MAO-B inhibition (human MAO-B [7]; Lineweaver-Burk plots): competitive inhibitor
- Ki (human MAO-B [7]; secondary plots of Lineweaver-Burk slopes, benzylamine 0.03-0.6 mM): 1.89 ± 0.014 µM

Compound: COc1cccc2nc3ccccc3nc12 [Compound 3, 1-methoxyphenazine]
- remaining activity at 10 µM (BACE-1): 79.9 ± 0.73%
- remaining activity at 10 µM (BChE from equine serum): 97 ± 2.72%
- Inhibitory activity against MAO-B (in words) (human MAO-B [1]): did not inhibit; also recorded: little inhibitory activity
- remaining activity at 10 µM (human MAO-B [1]): 96.9 ± 2.65%
- Inhibitory activity against MAO-A (in words) (Recombinant human MAO-A [2]): did not inhibit; also recorded: little inhibitory activity
- remaining activity at 10 µM (Recombinant human MAO-A [2]): 93.6 ± 4.11%
- remaining activity at 10 µM [5]: 83 ± 8.24%

Compound: CC1CC(=O)c2c(O)cccc2O1 (stereo not shown) [HMC, 5-hydroxy-2-methyl-chroman-4-one]
- IC50 (MAO-B): 3.23 µM
- IC50 (MAO-A): 14 µM

Compound: O=c1oc2cc(O)ccc2c2ccc(O)cc12 [UroA]
- IC50 (MAO-A): 5.88 µM

Compound: O=c1oc2cc(O)ccc2c2ccccc12 [UroB]
- IC50 (MAO-A): 0.88 µM

Compound: O=c1oc2cc(O)ccc2c2cc(O)c(O)cc12 [Ur°C]
- IC50 (MAO-A): 29.6 µM

Compound: COc1cc(O)c2c(=O)oc3cc(O)cc(C)c3c2c1 [alternariol monomethyl ether]
- IC50 (MAO-A): 1.71 µM

Compound: CN1C(=N)N(C)/C(=C/c2c[nH]c3ccccc23)C1=O [aplysinopsin]
- IC50 (MAO-A): 0.0056 µM

Reference: paper PMC9706024, “Chromenone Derivatives as Monoamine Oxidase Inhibitors from Marine-Derived MAR4 Clade Streptomyces sp. CNQ-031” (Journal of Microbiology and Biotechnology, 2021)
